{"source": "patent EP0550775A1", "about": "“Cephalosporin derivatives” (F. HOFFMANN-LA ROCHE AG, priority 1992, dated 1993)", "assay_type_in_all_cases": "cell-based", "key": {"E. coli 257": {"tested_on": "E. coli 257", "experiment": "microbe, parasite or virus in culture", "details": "agar dilution", "experimental": "(§1) In vitro activity of the compounds of the present invention was measured by the Minimum Inhibitory Concentration (MIC) in micrograms/ml utilizing the Agar Dilution Method, which is well known in the art, against a variety of gram-negative and gram-positive organisms."}, "E. coli TEM-1": {"tested_on": "E. coli TEM-1", "experiment": "microbe, parasite or virus in culture", "details": "agar dilution", "experimental": "as §1"}, "Enter. cloacae P99": {"tested_on": "Enter. cloacae P99", "experiment": "microbe, parasite or virus in culture", "details": "agar dilution", "experimental": "as §1"}, "E. coli ATCC 25922": {"tested_on": "E. coli ATCC 25922", "experiment": "microbe, parasite or virus in culture", "experimental": "as §1"}, "Prot. vulgaris ATCC 6380": {"tested_on": "Prot. vulgaris ATCC 6380", "experiment": "In vitro MIC, Agar Dilution Method", "experimental": "as §1"}, "Staph. aureus ATCC 29213": {"tested_on": "Staph. aureus ATCC 29213", "experiment": "In vitro MIC, Agar Dilution Method", "experimental": "as §1"}, "Staph. aureus 753": {"tested_on": "Staph. aureus 753", "experiment": "In vitro MIC, Agar Dilution Method", "experimental": "as §1"}, "Staph. aureus 67": {"tested_on": "Staph. aureus 67", "experiment": "In vitro MIC, Agar Dilution Method", "details": "Staph. aureus 67, agar dilution", "experimental": "as §1"}, "Ps. aeruginosa 765": {"tested_on": "Ps. aeruginosa 765", "experiment": "In vitro MIC, Agar Dilution Method", "experimental": "as §1"}, "Prot. vulgaris 1028 BC": {"tested_on": "Prot. vulgaris 1028 BC", "experiment": "In vitro MIC, Agar Dilution Method", "experimental": "as §1"}, "Str. pneumoniae 6301": {"tested_on": "Str. pneumoniae 6301", "experiment": "In vitro MIC, Agar Dilution Method", "details": "Str. pneumoniae 6301, agar dilution", "experimental": "as §1"}, "Str. pyogenes 4": {"tested_on": "Str. pyogenes 4", "experiment": "In vitro MIC, Agar Dilution Method", "details": "Str. pyogenes 4, agar dilution", "experimental": "as §1"}, "Enter. cloacae 5699": {"tested_on": "Enter. cloacae 5699", "experiment": "In vitro MIC, Agar Dilution Method", "details": "Enter. cloacae 5699, agar dilution", "experimental": "as §1"}, "[1]": {"tested_on": "Ps. aeruginosa ATCC 27853", "experiment": "In vitro MIC, Agar Dilution Method", "experimental": "as §1"}, "K. pneumoniae A": {"tested_on": "K. pneumoniae A", "experiment": "In vitro MIC, Agar Dilution Method", "details": "K. pneumoniae A, agar dilution", "experimental": "as §1"}, "Ser. marcescens SM": {"tested_on": "Ser. marcescens SM", "experiment": "In vitro MIC, Agar Dilution Method", "experimental": "as §1"}, "Staph. aureus Smith": {"tested_on": "Staph. aureus Smith", "experiment": "In vitro MIC, Agar Dilution Method", "experimental": "as §1"}, "Cit. freundi BS-16": {"tested_on": "Cit. freundi BS-16", "experiment": "In vitro MIC, Agar Dilution Method", "experimental": "as §1"}, "Prot. mirabilis 90": {"tested_on": "Prot. mirabilis 90", "experiment": "In vitro MIC, Agar Dilution Method", "details": "Prot. mirabilis 90, agar dilution", "experimental": "as §1"}, "Str. faecalis ATCC 29212": {"tested_on": "Str. faecalis ATCC 29212", "experiment": "In vitro MIC, Agar Dilution Method", "details": "Str. faecalis ATCC 29212, agar dilution", "experimental": "as §1"}, "Ps. aeruginosa 5712": {"tested_on": "Ps. aeruginosa 5712", "experiment": "In vitro MIC, Agar Dilution Method", "experimental": "as §1"}, "Ser. marcescens 1071": {"tested_on": "Ser. marcescens 1071", "experiment": "In vitro MIC, Agar Dilution Method", "details": "Ser. marcescens 1071, agar dilution", "experimental": "as §1"}, "Ps. aeruginosa 18SH": {"tested_on": "Ps. aeruginosa 18SH", "experiment": "In vitro MIC, Agar Dilution Method", "experimental": "as §1"}, "Ps. aeruginosa 8780": {"tested_on": "Ps. aeruginosa 8780", "experiment": "In vitro MIC, Agar Dilution Method", "experimental": "as §1"}, "Staph. aureus 1059B": {"tested_on": "Staph. aureus 1059B", "experiment": "In vitro MIC, Agar Dilution Method", "experimental": "as §1"}, "[2]": {"details": "Escherichia coli, read-out: MIC"}, "[3]": {"details": "Enterobacter cloacae, read-out: MIC"}, "[4]": {"details": "Staphylococcus aureus, read-out: MIC"}, "[5]": {"details": "Pseudomonas aeruginosa, read-out: MIC"}, "[6]": {"details": "Serratia marcescens, read-out: MIC"}}, "note": "Where a name gives a salt, the structure may show the parent alone. Read-outs that look alike come from different tables or passages of the source.", "data": [{"smiles": "N[C@@H](C(=O)N[C@@H]1C(=O)N2C(C(=O)O)=C(CN3CCN(c4cc5c(cc4F)c(=O)c(C(=O)O)cn5C4CC4)CC3)CS[C@H]12)c1ccccc1", "note": "[Compound D, [6R-[6α,7β(R)]]-7-[(Aminophenylacetyl)amino]-3-[[4-(3-carboxy-1-cyclopropyl-6-fluoro-1,4-dihydro-4-oxo-7-quinolinyl)-1-piperazinyl]methyl]-8-oxo-5-thia-1-azabicyclo[4.2.0]oct-2-ene-2-carboxylic acid trifluoroacetic acid salt]", "values": [{"measurement": "MIC", "setting": "E. coli 257; [2]", "value": 31.3, "unit": "µg/mL"}, {"measurement": "MIC", "setting": "E. coli TEM-1; [2]", "value": 31.3, "unit": "µg/mL"}, {"measurement": "MIC", "setting": "Enter. cloacae P99; [3]", "value": 31.3, "unit": "µg/mL"}, {"measurement": "MIC", "setting": "E. coli ATCC 25922; Escherichia coli, ATCC25922, agar dilution, read-out: MIC", "value": 31.3, "unit": "µg/mL"}, {"measurement": "MIC", "setting": "Prot. vulgaris ATCC 6380; Proteus vulgaris, ATCC6380, read-out: MIC", "value": 62.5, "unit": "µg/mL"}, {"measurement": "MIC", "setting": "Staph. aureus ATCC 29213; Staphylococcus aureus, ATCC29213, read-out: MIC", "value": 1000, "unit": "µg/mL"}, {"measurement": "MIC", "setting": "Staph. aureus 753; [4]", "value": 2000, "unit": "µg/mL"}, {"measurement": "MIC", "setting": "Staph. aureus 67; [4]", "value": 2000, "unit": "µg/mL"}, {"measurement": "MIC", "setting": "Ps. aeruginosa 765; [5]", "value": 2000, "unit": "µg/mL"}, {"measurement": "MIC", "setting": "Prot. vulgaris 1028 BC; Proteus vulgaris, read-out: MIC", "value": 62.5, "unit": "µg/mL"}, {"measurement": "MIC", "setting": "Str. pneumoniae 6301; Streptococcus pneumoniae, read-out: MIC", "value": 2000, "unit": "µg/mL"}, {"measurement": "MIC", "setting": "Str. pyogenes 4; Streptococcus pyogenes, read-out: MIC", "value": 1000, "unit": "µg/mL"}, {"measurement": "MIC", "setting": "Enter. cloacae 5699; [3]", "value": 125, "unit": "µg/mL"}, {"measurement": "MIC", "setting": "[1]; Pseudomonas aeruginosa, ATCC27853, read-out: MIC", "value": 1000, "unit": "µg/mL"}, {"measurement": "MIC", "setting": "K. pneumoniae A; Klebsiella pneumoniae, read-out: MIC", "value": 31.3, "unit": "µg/mL"}, {"measurement": "MIC", "setting": "Ser. marcescens SM; [6]", "value": 125, "unit": "µg/mL"}, {"measurement": "MIC", "setting": "Staph. aureus Smith; [4]", "value": 500, "unit": "µg/mL"}, {"measurement": "MIC", "setting": "Cit. freundi BS-16; read-out: MIC", "value": 62.5, "unit": "µg/mL"}, {"measurement": "MIC", "setting": "Prot. mirabilis 90; Proteus mirabilis, read-out: MIC", "value": 250, "unit": "µg/mL"}, {"measurement": "MIC", "setting": "Str. faecalis ATCC 29212; Enterococcus faecalis, ATCC29212, read-out: MIC", "value": 4000, "unit": "µg/mL"}, {"measurement": "MIC", "setting": "Ps. aeruginosa 5712; [5]", "value": 4000, "unit": "µg/mL"}, {"measurement": "MIC", "setting": "Ser. marcescens 1071; [6]", "value": 125, "unit": "µg/mL"}, {"measurement": "MIC", "setting": "Ps. aeruginosa 18SH; [5]", "value": 1000, "unit": "µg/mL"}, {"measurement": "MIC", "setting": "Ps. aeruginosa 8780; [5]", "value": 1000, "unit": "µg/mL"}, {"measurement": "MIC", "setting": "Staph. aureus 1059B; [4]", "value": 1000, "unit": "µg/mL"}]}, {"smiles": "CC(C)(O/N=C(\\C(=O)N[C@@H]1C(=O)N2C(C(=O)[O-])=C(CN3CCN(c4cc5c(cc4F)c(=O)c(C(=O)[O-])cn5C4CC4)CC3)CS[C@H]12)c1csc(N)n1)C(=O)NNC(=O)c1ccc(O)c(O)c1.[Na+].[Na+]", "note": "[Compound G, [6R-[6α,7β(Z)]]-7-[[[(2-Amino-4-thiazolyl)[1-[[(3,4-dihydroxybenzoyl)hydrazino]carbonyl]-1-methylethoxy]imino]acetyl]amino]-3-[[4-(3-carboxy-1-cyclopropyl-6-fluoro-1,4-dihydro-4-oxo-7-quinolinyl)-1-piperazinyl]methyl]-8-oxo-5-thia-1-azabicyclo[4.2.0]oct-2-ene-2-carboxylic acid sodium salt]", "values": [{"measurement": "MIC", "setting": "E. coli 257", "value": 125, "unit": "µg/mL"}, {"measurement": "MIC", "setting": "E. coli TEM-1", "value": 62.5, "unit": "µg/mL"}, {"measurement": "MIC", "setting": "Enter. cloacae P99", "value": 250, "unit": "µg/mL"}, {"measurement": "MIC", "setting": "E. coli ATCC 25922; agar dilution", "value": 125, "unit": "µg/mL"}, {"measurement": "MIC", "setting": "Prot. vulgaris ATCC 6380", "value": 125, "unit": "µg/mL"}, {"measurement": "MIC", "setting": "Staph. aureus ATCC 29213", "value": 4000, "unit": "µg/mL"}, {"measurement": "MIC", "setting": "Staph. aureus 753", "value": 4000, "unit": "µg/mL"}, {"measurement": "MIC", "setting": "Staph. aureus 67", "value": 8000, "unit": "µg/mL"}, {"measurement": "MIC", "setting": "Ps. aeruginosa 765", "value": 500, "unit": "µg/mL"}, {"measurement": "MIC", "setting": "Prot. vulgaris 1028 BC", "value": 250, "unit": "µg/mL"}, {"measurement": "MIC", "setting": "Str. pneumoniae 6301", "value": 125, "unit": "µg/mL"}, {"measurement": "MIC", "setting": "Str. pyogenes 4", "value": 250, "unit": "µg/mL"}, {"measurement": "MIC", "setting": "Enter. cloacae 5699", "value": 250, "unit": "µg/mL"}, {"measurement": "MIC", "setting": "[1]", "value": 500, "unit": "µg/mL"}, {"measurement": "MIC", "setting": "K. pneumoniae A", "value": 500, "unit": "µg/mL"}, {"measurement": "MIC", "setting": "Ser. marcescens SM", "value": 500, "unit": "µg/mL"}, {"measurement": "MIC", "setting": "Staph. aureus Smith", "value": 2000, "unit": "µg/mL"}, {"measurement": "MIC", "setting": "Cit. freundi BS-16", "value": 250, "unit": "µg/mL"}, {"measurement": "MIC", "setting": "Prot. mirabilis 90", "value": 500, "unit": "µg/mL"}, {"measurement": "MIC", "setting": "Str. faecalis ATCC 29212", "value": 4000, "unit": "µg/mL"}, {"measurement": "MIC", "setting": "Ps. aeruginosa 5712", "value": 250, "unit": "µg/mL"}, {"measurement": "MIC", "setting": "Ser. marcescens 1071", "value": 500, "unit": "µg/mL"}, {"measurement": "MIC", "setting": "Ps. aeruginosa 18SH", "value": 500, "unit": "µg/mL"}, {"measurement": "MIC", "setting": "Ps. aeruginosa 8780", "value": 250, "unit": "µg/mL"}, {"measurement": "MIC", "setting": "Staph. aureus 1059B", "value": 4000, "unit": "µg/mL"}]}]}
